Reference: patent publication US20260146274A1, “RECOMBINANT SMALL-MOLECULE COLLAGEN, EXPRESSION SYSTEM THEREOF, AND PREPARATION METHOD THEREOF” (JIANGSU TRAUTEC MEDICAL TECHNOLOGY CO., LTD., priority 2023, published 2026)

Test system: NIH/3T3 cell
Test: Cell adhesion activity detection (LDH kit, OD492 nm)
Assay type: cell-based
Conditions: for cell adhesion activity (absorbance at OD492 nm) compared with natural human collagen: protein coated at 0.5 mg/mL, NIH/3T3 cells, 60 minutes, FIG. 26
Protocol: References for Detection Method for Cell Adhesion Activity of Recombinant Small-Molecule Collagen: Juming Yao, Satoshi Yanagisawa, Tetsuo Asakura. Design, Expression and Characterization of Collagen-Like Proteins Based on the Cell Adhesive and Crosslinking Sequences Derived from natural Collagens, J Biochem. 136, 643-649 (2004).
Specific implementation method: A NIH/3T3 cell was cultured under standard conditions (purchased from Cell Bank of the Chinese Academy of Sciences, with catalog number of GNM6. Culture and passage methods followed a cell instruction). […] A natural human collagen (Sigma, Catalog No. C7774) was compared to a bovine serum albumin solution (BSA, purchased from Sangon Biotech (Shanghai) Co., Ltd.) (in ultrapure water or 1M HCl solution). Protein concentration was determined using the UV protein quantification empirical formula: C (mg/mL)=0.144×(A215-A225). Then, the protein was diluted to 0.5 mg/mL with PBS (pH 7.4).
100 μL of various protein solutions and blank PBS solution were added to a 96-well cell culture plate, and set aside 60 minutes at room temperature. Then, […] NIH/3T3 cells with good culture status were added to each well, and incubated at 37° C. and 5% CO2 for 60 minutes. The cells were cleaned in the wells 4 times with PBS. An absorbance value at OD492 nm was detected using a LDH detection kit (Roche, 04744926001). Data were analyzed and subject to significant differential analysis (SPSS 22 software, Duncan's method, P<0.05).
The absorbance value at OD492 nm characterized the cell adhesion activity of a collagen sample: higher adhesion activity indicated more cells adhering to the protein.

[1] = equivalent concentrations (0.5 mg/mL), NIH/3T3, Duncan's method P<0.05

“17S1NNT: 82 amino acids, positions 636 to 718 of full-length human collagen XVII, SEQ ID NO.5” was tested, and the “cell adhesion activity compared with larger-molecular-weight recombinant type-XVII collagen” value [1] was “no significant difference” and the “cell adhesion activity (absorbance at OD492 nm) compared with natural human collagen” value was “comparable to or superior to that of a natural human collagen”.

B1: 3A5D1NT: 96 amino acids, positions 990 to 1085 of full-length human type III collagen, SEQ ID NO.1 (protein, listed as Homo sapiens)
chain: DGNPGSDGLPGRDGSPGGKGDRGENGSPGAPGAPGHPGPPGPVGPAGKSGDRGESGPAGPAGAPGPAGSRGAPGPQGPRGDKGETGERGAAGIKGH
modifications: Recombinant small-molecule collagen 3A5D1NT
In the case of B1, the “cell adhesion activity compared with larger-molecular-weight recombinant type-III collagen” value [1] is reported as “significantly outperformed” and the “cell adhesion activity (absorbance at OD492 nm) compared with natural human collagen” value is reported as “comparable to or superior to that of a natural human collagen”.
